The target in one data set is LRRK2 G2019S (Homo sapiens (Human), UniProt Q5S007, G2019S). Put plainly: Adapta kinase assay (LRRK2_IC50 assay). Type of data set: biochemical. The settings on record: Adapta TR-FRET, 1 h, room temperature. As to the method: In the Adapta™ kinase assay method (LRRK2_IC50 assay): the kinase reaction buffer contained kinase buffer S (Life Technologies, PV5213) and 2 mM DTT (Life Technologies, P2325). The kinases LRRK2 G2019S protein (PV4881) and ERM (LRRKtide, PV5093) were derived from Life Technologies. The Adapta™ universal kinase assay kit (Life Technologies, PV5099) contained the following components: Adapta™ Eu-anti-ADP antibody (PV5097; 4 μg); 10 μM AlexaFluor®647 ADP tracer (PV5098; 200 pmol); TR-FRET dilution buffer (PV3574; 100 mL); kinase quench buffer (P2825; 1 mL); 10 mM ATP (PV3227; 500 μL); and 10 mM ADP (PV5096; 500 μL). LRRK2-IN-1 (1234480-84-2, HY-10875) was derived from MedChem Express.
Adapta™ Kinase Assay Method
Adapta® universal kinase assay method is a uniform fluorescence-based immunoassay for detecting ADP. In contrast to ATP consumption assay, Adapta® assay method was very sensitive to ADP formation, with most signal changes occurring when initially 10-20% ATP was converted to ADP. This made Adapta® universal kinase assay method very suitable for low-activity kinases.
All assays were performed at room temperature (about 21° C.) and were linearly related to time and enzyme concentration under the conditions used. 1× kinase reaction buffer was prepared from 5× kinase buffer S stock solution (listed above), and 10 mL of 1× kinase reaction buffer was prepared by the addition of 2 mL of 5× stock solution to 8 mL of H2O. To the 1× kinase reaction buffer was added 20 μL of 1 M DTT.
A kinase reaction was performed in a low-volume 384-well plate in a volume of 10 μL. Typically, a Greiner plate was used (Catalog #3674 #, low volume, white wall, 784075). Other untreated assay plates that were not tested could also be suitable. The substrate concentration in the assay was 100 μM, and the 1× kinase reaction buffer consisted of 50 mM Tris-HCl (pH 8.5), 10 mM MgCl2, 1 mM EGTA, 0.01% Brij-35 and 2 mM DTT, as well as any other additives that could be necessary for the particular kinase. The kinase reaction was allowed to proceed for 1 h at room temperature, followed by the addition of a formulation of kinase quenching buffer (EDTA; 30 mM), Eu-labeled antibody (6 nM), and tracer (18.9 nM) in TR-FRET dilution buffer (5 μL). The final concentration of the antibody in the assay wells was 2 nM, the final concentration of the tracer was 6.3 nM, and the final concentration of EDTA was 10 mM. The plate was allowed to equilibrate at room temperature for at least 30 min and then read on a plate reader configured for Adapta™ TR-FRET.
The data provided in this document were generated by using BMG LABTECH PHERAstar plate reader and using appropriate filters and instrument settings for Adapta™. Test compounds were screened in wells with 1% DMSO (final). For 8-point titration, a 5-fold serial dilution was made on the basis of a starting concentration.
A general note: TR-FRET usually uses a lanthanide donor and a delayed reading to cut background.

A short description of data set [1]: Drug tissue distribution assay: plasma pharmacokinetics. The settings on record: mice, single oral intragastric 30 mg/kg. Type of data set: in vivo. As to the method: (§1) Test sample: compound 4, purity 99%
(§2) Preparation of test sample: 22.73 mg of compound 4 was weighed and placed in a mortar (according to the purity of 99%), and a small amount of 0.5% CMC-Na was added followed by full grinding. The mixture was then transferred to a container; the mortar was washed for 4 times; the washing solution was transferred to the container, followed by the addition of 0.5% CMC-Na until the volume of the reaction solution was 30 mL; and then a test sample suspension with a concentration of […] was prepared. The suspension was stirred with a magnetic stirrer at a rotation speed of 1200 rpm for at least 15 min prior to sampling for analysis and administration, with fresh preparation just prior to use.
(§3) Route of administration: oral intragastric administration
(§4) Frequency and dose of administration: single administration at 30 mg/kg (40 mL/kg)
(§5) After drug administration, 0.4 mL of blood was collected from the heart of each group of animals at corresponding time points of 0.25 h, 0.5 h, 1 h, 2 h, 4 h, 6 h, 8 h, and 24 h, respectively, the animals were anesthetized by intraperitoneal injection of 50 mg/kg Zoletil, and then put to death by bleeding. The brain, lung, and kidney of each animal were taken out, washed with normal saline, dried off with filter paper, and put into a cryopreservation tube. The cryopreservation tube was temporarily placed in dry ice, and stored at −60° C. or below for 12 h.
(§6) The collected blood was anticoagulated with EDTA-K2, then temporarily placed in wet ice, and then centrifuged for 10 min at 4° C. and at 2600 g within 2 h. The plasma was temporarily placed in dry ice, and stored in a refrigerator at −60° C. or below within 14 h.
(§7) Analytical method: The drug concentrations in plasma and brain tissue were measured by the following LC-MS/MS method. • Instrument: Shimadzu LC-MS/MS (Model: LCMS-8060); • Chromatographic column: GL Sciences Inc., InertSustain, C18, 3 μm, 2.1×50 mm; • Ion detection: positive ion mode, m/z 453.10/338.05; • Mobile phase A: aqueous solution containing 0.1% TFA; mobile phase B: methanol solution containing 0.1% TFA;
(§8) Pharmacokinetic parameter evaluation index: pharmacokinetic parameters were calculated in a non-compartmental model using WinNonlin 6.4.

A short description of data set [2]: Drug tissue distribution assay: brain tissue pharmacokinetics / blood-brain barrier permeability. Type of data set: in vivo. The settings on record: mice, single oral intragastric 30 mg/kg. How it is done: as §1, §2, §3, §4, §5, §6, §7, §8

Each structure is given as a SMILES string. pIC50: −log10 of the molar value.

By pIC50 is commonly meant the negative decadic logarithm of the IC50, by convention in mol/L. As a reminder, the CL/F is the apparent clearance, not corrected for the fraction that reaches the circulation. As a reminder, the Tmax is the time at which the peak concentration occurs. As a reminder, the half-life is the time in which the quantity being followed falls by half. A lower half-life goes with rapid decline.

Chain of LRRK2 G2019S (Q5S007 whole entry G2019S): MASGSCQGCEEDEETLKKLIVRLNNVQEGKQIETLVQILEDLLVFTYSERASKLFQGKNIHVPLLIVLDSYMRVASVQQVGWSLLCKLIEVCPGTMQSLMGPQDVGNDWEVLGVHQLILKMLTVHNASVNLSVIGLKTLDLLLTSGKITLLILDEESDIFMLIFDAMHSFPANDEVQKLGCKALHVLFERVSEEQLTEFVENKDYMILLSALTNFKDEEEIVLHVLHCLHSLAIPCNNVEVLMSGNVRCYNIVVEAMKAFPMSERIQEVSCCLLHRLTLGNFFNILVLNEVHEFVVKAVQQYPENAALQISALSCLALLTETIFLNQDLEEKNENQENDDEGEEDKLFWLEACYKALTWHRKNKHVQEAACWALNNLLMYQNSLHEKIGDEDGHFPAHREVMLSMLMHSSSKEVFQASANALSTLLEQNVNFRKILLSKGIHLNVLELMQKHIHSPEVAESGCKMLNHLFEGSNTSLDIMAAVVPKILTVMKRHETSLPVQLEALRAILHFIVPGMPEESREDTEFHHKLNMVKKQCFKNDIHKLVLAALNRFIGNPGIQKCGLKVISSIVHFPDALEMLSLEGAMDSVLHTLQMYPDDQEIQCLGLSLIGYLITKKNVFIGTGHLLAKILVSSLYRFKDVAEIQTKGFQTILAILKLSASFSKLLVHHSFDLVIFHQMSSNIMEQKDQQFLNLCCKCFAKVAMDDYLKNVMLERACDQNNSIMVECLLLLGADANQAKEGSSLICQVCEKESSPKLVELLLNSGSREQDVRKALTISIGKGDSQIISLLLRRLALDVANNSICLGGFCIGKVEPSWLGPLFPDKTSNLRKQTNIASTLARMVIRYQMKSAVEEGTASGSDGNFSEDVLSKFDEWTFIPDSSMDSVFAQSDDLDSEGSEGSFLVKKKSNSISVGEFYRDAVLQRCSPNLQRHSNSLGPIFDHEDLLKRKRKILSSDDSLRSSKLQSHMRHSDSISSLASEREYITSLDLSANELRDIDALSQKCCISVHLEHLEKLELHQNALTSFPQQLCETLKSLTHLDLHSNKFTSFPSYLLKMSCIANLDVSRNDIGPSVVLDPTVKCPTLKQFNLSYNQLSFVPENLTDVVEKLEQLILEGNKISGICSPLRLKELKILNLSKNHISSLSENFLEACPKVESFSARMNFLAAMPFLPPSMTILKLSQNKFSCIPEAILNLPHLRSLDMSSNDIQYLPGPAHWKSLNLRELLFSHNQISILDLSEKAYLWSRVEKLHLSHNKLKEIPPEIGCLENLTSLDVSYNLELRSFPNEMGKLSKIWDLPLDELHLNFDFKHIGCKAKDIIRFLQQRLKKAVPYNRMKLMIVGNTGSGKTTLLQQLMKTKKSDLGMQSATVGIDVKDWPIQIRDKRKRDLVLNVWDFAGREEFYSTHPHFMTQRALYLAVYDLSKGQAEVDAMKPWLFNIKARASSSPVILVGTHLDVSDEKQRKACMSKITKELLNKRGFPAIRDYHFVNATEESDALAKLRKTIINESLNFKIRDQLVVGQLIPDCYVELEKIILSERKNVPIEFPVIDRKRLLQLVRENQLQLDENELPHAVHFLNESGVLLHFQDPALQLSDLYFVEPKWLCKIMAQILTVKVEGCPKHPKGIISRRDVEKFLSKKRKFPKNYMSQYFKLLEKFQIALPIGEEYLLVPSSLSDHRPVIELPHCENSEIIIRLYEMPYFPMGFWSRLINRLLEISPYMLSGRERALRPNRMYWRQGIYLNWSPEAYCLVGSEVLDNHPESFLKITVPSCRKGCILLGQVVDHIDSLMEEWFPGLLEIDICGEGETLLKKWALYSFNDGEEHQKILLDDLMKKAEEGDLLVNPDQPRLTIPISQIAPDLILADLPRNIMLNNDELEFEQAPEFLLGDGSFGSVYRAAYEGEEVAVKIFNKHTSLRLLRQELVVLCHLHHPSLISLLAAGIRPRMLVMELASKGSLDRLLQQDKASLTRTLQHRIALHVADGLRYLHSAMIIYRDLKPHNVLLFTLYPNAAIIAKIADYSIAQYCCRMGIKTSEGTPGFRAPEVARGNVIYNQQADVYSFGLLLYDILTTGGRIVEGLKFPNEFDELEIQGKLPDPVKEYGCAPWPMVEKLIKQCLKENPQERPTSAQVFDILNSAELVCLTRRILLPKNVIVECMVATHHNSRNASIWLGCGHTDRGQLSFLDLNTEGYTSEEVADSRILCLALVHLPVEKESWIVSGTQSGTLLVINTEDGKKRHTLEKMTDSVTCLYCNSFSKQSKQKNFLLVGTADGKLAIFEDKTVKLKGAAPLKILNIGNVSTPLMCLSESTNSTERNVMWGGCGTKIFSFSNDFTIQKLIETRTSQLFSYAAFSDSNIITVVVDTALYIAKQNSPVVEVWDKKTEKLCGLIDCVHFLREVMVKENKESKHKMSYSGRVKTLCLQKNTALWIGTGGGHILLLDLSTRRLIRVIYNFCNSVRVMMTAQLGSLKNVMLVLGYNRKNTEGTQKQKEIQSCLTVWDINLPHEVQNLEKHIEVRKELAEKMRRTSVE

For `CCOc1nc(Nc2ccc(C(N3CCOCC3)C(F)(F)F)cc2OC)nc2[nH]ccc12` (single isomer, unassigned) [Compound 4, 4-ethoxy-N-(2-methoxy-4-(2,2,2-trifluoro-1-morpholinoethyl)phenyl)-7H-pyrrolo[2,3-d]pyrimidin-2-amine], the pIC50 against LRRK2 G2019S is 7.77. Besides, in data set [1], the AUC0-t is 3248 ng · h · mL^−l, the “AUC0-∞” value stood at 3257 ng · h · mL^−l, the Cmax is given as 597 ng · mL^−l and the Kel was found to be 0.247 h^−l. In addition, in data set [1] (mouse), the CL/F is 154 mL/min/kg, the Tmax is 1 h and the half-life was 2.8 h. Further, the MRT last in data set [1] (mouse, read-out: MRT0-t) was found to be 4.5 h. The MRT inf in data set [1] (mouse, read-out: MRT0-∞) was determined as 4.56 h. The Vd/F in data set [1] (mouse, read-out: Vz/F) was 37.3 L/kg. Moreover, in data set [2] (brain tissue), the AUC0-t came out at 6457 ng · h · g^−l, the “AUC0-∞” value is on record as 7409 ng · h · g^−l and the Cmax amounted to 1898 ng · g^−l. The blood-brain barrier permeability result in data set [2] (result in words) is “excellent blood-brain barrier permeability”. Further, the Kp in data set [2] (mouse, brain / plasma, read-out: AUCbrain/AUCplasma) is about 2. In addition, the Tmax in data set [2] (mouse, brain tissue) worked out at 1 h.

Values taken from US20230391775A1, “SUBSTITUTED DIARYLAMINE COMPOUND, PHARMACEUTICAL COMPOSITION THEREOF, PREPARATION METHOD THEREFOR, AND USE THEREOF” (SUZHOU YABAO PHARMACEUTICAL R&D CO., LTD., priority 2020, published 2023).
